This note sets out measurements from US20110065694A1 (priority 2009, published 2011).

In the first assay the target is human histamine H3 receptor (Homo sapiens, UniProt Q9Y5N1). The assay is described as follows: H3 GTPγS assay (SPA method), histamine H3 in vitro assay. The assay is classed as biochemical.
human histamine H3 receptor, sequence (Q9Y5N1 whole entry): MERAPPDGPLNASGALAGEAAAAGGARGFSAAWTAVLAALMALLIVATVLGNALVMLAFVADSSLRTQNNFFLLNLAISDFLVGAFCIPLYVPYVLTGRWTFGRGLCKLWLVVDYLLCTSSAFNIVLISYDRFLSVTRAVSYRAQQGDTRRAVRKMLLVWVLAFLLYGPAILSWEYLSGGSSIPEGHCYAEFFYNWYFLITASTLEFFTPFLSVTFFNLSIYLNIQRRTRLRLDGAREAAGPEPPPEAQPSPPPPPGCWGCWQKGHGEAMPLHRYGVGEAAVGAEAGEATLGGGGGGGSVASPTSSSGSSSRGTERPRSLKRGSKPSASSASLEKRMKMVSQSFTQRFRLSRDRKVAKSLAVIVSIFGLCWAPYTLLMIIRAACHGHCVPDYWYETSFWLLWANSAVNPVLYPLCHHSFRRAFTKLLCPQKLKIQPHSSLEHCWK
Settings: not given
How it is done:
Briefly, cells expressing the human histamine H3 receptor were homogenized in 15 mM Tris-HCl pH 7.5, 2 mM MgCl2, 0.3 mM EDTA, and 1 mM EGTA. […] Membranes were frozen in liquid nitrogen until use. On the day of the assay, membranes were thawed and diluted in assay buffer (20 mM HEPES pH 7.4, 100 mM NaCl, 10 μg/ml saponin, 1 mM MgCl2) to give 500 μg/ml and mixed (v/v) with GDP in assay buffer for a final GDP concentration of 10 μM and incubated on ice for at least […]. PVT-WGA beads (Amersham, RPNQ001) were diluted in assay buffer at 50 mg/mL and mixed with GTPγ[^35S] (Amersham, SJ1308) diluted in assay buffer to give ˜25,000 dpm/10 μL and mixed vol/vol just before the start of the reaction.
For antagonists testing, 10 μL of a reference agonist ([…]) instead of 10 μL buffer was added at a concentration corresponding to the EC80 (30 nM).
The compounds provided herein were tested in the histamine H3 in vitro assay. In one embodiment, the respective HCl salts of the compounds provided herein were prepared using standard chemical procedures and tested in the histamine H3 in vitro assay.
Usually IC50 stands for the point on the concentration scale where inhibition reaches its midpoint. The molecule `Brc1ccc2c(c1)nc1n2CCN2CCC[C@H]2C1` [Compound 1, (S)-10-bromo-2,3,5,6,13,13a-hexahydro-1H-benzo[4,5]imidazo[1,2-d]pyrrolo[2,1-g][1,4]diazepine] came in with an IC50 of under 1000 nM.
The same measure, in the same setting: the figure for `N#Cc1ccc(-c2ccc3c(c2)nc2n3CCN3CCC[C@H]3C2)cc1` [Compound 2, (S)-4-(2,3,5,6,13,13a-hexahydro-1H-benzo[4,5]imidazo[1,2-d]pyrrolo[2,1-g][1,4]diazepin-10-yl)benzonitrile] is under 100 nM; for `Brc1ccc2c(c1)nc1n2CC2CCCN2CC1` (centres unmarked) [Compound 12, 9-bromo-2,3,5,6,13,13a-hexahydro-1H-benzo[4,5]imidazo[1,2-d]pyrrolo[1,2-a][1,4]diazepine] it is over 1000 nM; for `c1coc(-c2ccc3c(c2)nc2n3CC3CCC(C2)N3C2CCC2)c1` (centres unmarked) [Compound 19, 13-cyclobutyl-3-(furan-2-yl)-6,7,8,9,10,11-hexahydro-7,10-epiminobenzo[4,5]imidazo[1,2-a]azocine] it is under 100 nM.
On to `NCc1ccc(-c2ccc3c(c2)nc2n3CC3CCC(C2)N3C2CCC2)cc1` (centres unmarked) [Compound 23, (4-(13-cyclobutyl-6,7,8,9,10,11-hexahydro-7,10-epiminobenzo[4,5]imidazo[1,2-a]azocin-3-yl)phenyl)-methanamine], for which the IC50 was under 10 nM.
As for `N#Cc1ccc(-c2ccc3c(c2)nc2n3C3CCC2CN(C2CCC2)C3)cc1` (centres unmarked) [Compound 26, 4-(3-cyclobutyl-2,3,4,5-tetrahydro-1H-1,5-ethanobenzo[4,5]imidazo[1,2-d][1,4]diazepin-8-yl)benzonitrile], the IC50 was under 100 nM.

Staying with this assay, now noted: membranes of cells expressing human H3; GTPγ[35S] SPA; antagonist testing with reference agonist at EC80 (30 nM); in one embodiment HCl salts tested; read-out: Potency (functional potency as indicated by IC50).
As to `N#Cc1ccc(-c2ccc3c(c2)nc2n3CC3CCC(C2)N3C2CCC2)cc1` (single isomer, unassigned) [Compound 44], the IC50 is under 10 nM.
In the case of `N#Cc1ccc(-c2ccc3c(c2)nc2n3CC3CCC(C2)N3C2CCC2)cc1` (single isomer, unassigned) [Compound 45], the IC50 is under 1000 nM.
The same measure, in the same setting: the figure for `N#Cc1ccc(-c2ccc3c(c2)nc2n3CCN3CCCCC3C2)cc1` (single isomer, unassigned) [Compound 46] is under 100 nM; for `N#Cc1ccc(-c2ccc3c(c2)nc2n3CCN3CCCCC3C2)cc1` (single isomer, unassigned) [Compound 47] it is under 10 nM.
Regarding `c1cc2c(cc1CN1CCOCC1)nc1n2CCN2CCCCC2C1` (single isomer, unassigned) [Compound 50], the IC50 was under 10 nM.
For the molecule `c1cc2c(cc1CN1CCOCC1)nc1n2CCN2CCCCC2C1` (single isomer, unassigned) [Compound 51], the IC50 is under 100 nM.
With `c1cn2cc(-c3ccc4c(c3)nc3n4CCCN4CCCCC4C3)ccc2n1` (single isomer, unassigned) [Compound 70], the IC50 was under 10 nM.
`c1cn2cc(-c3ccc4c(c3)nc3n4CCCN4CCCCC4C3)ccc2n1` (single isomer, unassigned) [Compound 71]: the IC50 was under 100 nM.
Consider `c1cn2cc(-c3ccc4c(c3)nc3n4CCN4CCCC4C3)ccc2n1` (single isomer, unassigned) [Compound 77], for which the IC50 was under 10 nM.
Take `c1cn2cc(-c3ccc4c(c3)nc3n4CCN4CCCC4C3)ccc2n1` (single isomer, unassigned) [Compound 78]: the IC50 is under 100 nM.
For the molecule `c1cn2cc(-c3ccc4c(c3)nc3n4CCCN4CCCC4C3)ccc2n1` (single isomer, unassigned) [Compound 82], the IC50 is under 10 nM.
With `c1cn2cc(-c3ccc4c(c3)nc3n4CCCN4CCCC4C3)ccc2n1` (single isomer, unassigned) [Compound 83], the IC50 is under 10 nM.
As to `CC(=O)Nc1ccc(-c2ccc3c(c2)nc2n3CCN3CCC[C@H]3C2)cc1` [Compound 3, (S)-N-(4-(2,3,5,6,13,13a-hexahydro-1H-benzo[4,5]imidazo[1,2-d]pyrrolo[2,1-g][1,4]diazepin-10-yl)phenyl)acetamide], the IC50 was under 100 nM.
Consider `c1coc(-c2ccc3c(c2)nc2n3CCN3CCC[C@H]3C2)c1` [Compound 4, (5)-10-(furan-2-yl)-2,3,5,6,13,13a-hexahydro-1H-benzo[4,5]imidazo[1,2-d]pyrrolo[2,1-g][1,4]diazepine], for which the IC50 was under 1000 nM.
For `N#Cc1ccc(-c2ccc3c(c2)nc2n3CCN3CCC[C@H]3C2)cn1` [Compound 5, (S)-5-(2,3,5,6,13,13a-hexahydro-1H-benzo[4,5]imidazo[1,2-d]pyrrolo[2,1-g][1,4]diazepin-10-yl)picolinonitrile], the IC50 is under 100 nM.
On to `c1cnc(-c2ccc3c(c2)nc2n3CCN3CCC[C@H]3C2)cn1` [Compound 6, (S)-10-(pyrazin-2-yl)-2,3,5,6,13,13a-hexahydro-1H-benzo[4,5]imidazo[1,2-d]pyrrolo[2,1-g][1,4]diazepine], for which the IC50 is over 1000 nM.
For the molecule `Brc1ccc2c(c1)nc1n2CCN2CCCCC2C1` (centres unmarked) [Compound 7, 11-bromo-1,2,3,4,6,7,14,14a-octahydrobenzo-[4,5]imidazo[1,2-d]pyrido[2,1-g][1,4]diazepine], the half-maximal inhibitory concentration (IC50) is under 100 nM.
On the same count and under the same terms, next, `N#Cc1ccc(-c2ccc3c(c2)nc2n3CCN3CCCCC3C2)cc1` (centres unmarked) [Compound 8, 4-(1,2,3,4,6,7,14,14a-octahydrobenzo[4,5]imidazo-[1,2-d]pyrido[2,1-g][1,4]diazepin-11-yl)benzonitrile]: under 10 nM; `c1cnc(-c2ccc3c(c2)nc2n3CCN3CCCCC3C2)cn1` (centres unmarked) [Compound 9, 11-(pyrazin-2-yl)-1,2,3,4,6,7,14,14a-octahydrobenzo[4,5]imidazo[1,2-d]pyrido[2,1-g][1,4]diazepine]: under 10 nM.
Consider `c1cn(-c2ccc3c(c2)nc2n3CCN3CCCCC3C2)cn1` (centres unmarked) [Compound 10, 11-(1H-imidazol-1-yl)-1,2,3,4,6,7,14,14a-octahydrobenzo[4,5]imidazo[1,2-d]pyrido[2,1-g][1,4]diazepine], for which the IC50 was under 10 nM.
As to `CN1CCN(c2ccc3c(c2)nc2n3CCN3CCCCC3C2)CC1` (centres unmarked) [Compound 11, 11-(4-methylpiperazin-1-yl)-1,2,3,4,6,7,14,14a-octahydrobenzo[4,5]imidazo[1,2-d]pyrido[2,1-g][1,4]diazepine], the IC50 is under 10 nM.
Consider `N#Cc1ccc(-c2ccc3c(c2)nc2n3CC3CCCN3CC2)cc1` (centres unmarked) [Compound 13, 4-(2,3,5,6,13,13a-hexahydro-1H-benzo[4,5]imidazo[1,2-d]pyrrolo[1,2-a][1,4]diazepin-9-yl)benzonitrile], for which the IC50 was under 1000 nM.
Same read-out and setting: next, `c1coc(-c2ccc3c(c2)nc2n3CC3CCCN3CC2)c1` (centres unmarked) [Compound 14, 9-(furan-2-yl)-2,3,5,6,13,13a-hexahydro-1H-benzo[4,5]imidazo[1,2-d]pyrrolo[1,2-a][1,4]diazepine]: over 1000 nM; `c1cn2cc(-c3ccc4c(c3)nc3n4CCN4CCCCC4C3)ccc2n1` (centres unmarked) [Compound 15, 11-(imidazo[1,2-a]pyridin-6-yl)-1,2,3,4,6,7,14,14a-octahydrobenzo[4,5]imidazo[1,2-d]pyrido[2,1-g][1,4]diazepine]: under 10 nM.
Turning to `c1ccc2c(c1)ncn2-c1ccc2c(c1)nc1n2CCN2CCCCC2C1` (centres unmarked) [Compound 16, 11-(1H-benzo[d]imidazol-1-yl)-1,2,3,4,6,7,14,14a-octahydrobenzo[4,5]imidazo[1,2-d]pyrido[2,1-g][1,4]diazepine], the IC50 was under 10 nM.
For `c1cc2c(cc1CN1CCOCC1)nc1n2CCN2CCCCC2C1` (centres unmarked) [Compound 17, 4-((1,2,3,4,6,7,14,14a-octahydrobenzo[4,5]imidazo[1,2-d]pyrido[2,1-g][1,4]diazepin-11-yl)methyl)morpholine], the IC50 was under 10 nM.
Turning to `Clc1ccc2c(c1)nc1n2CC2CCC(C1)N2C1CCC1` (centres unmarked) [Compound 18, 3-chloro-13-cyclobutyl-6,7,8,9,10,11-hexahydro-7,10-epiminobenzo[4,5]imidazo[1,2-a]azocine], the IC50 is under 1000 nM.
In the case of `N#Cc1ccc(-c2ccc3c(c2)nc2n3CC3CCC(C2)N3C2CCC2)cc1` (centres unmarked) [Compound 20, 4-(13-cyclobutyl-6,7,8,9,10,11-hexahydro-7,10-epiminobenzo[4,5]imidazo[1,2-a]azocin-3-yl)benzonitrile], the IC50 is under 10 nM.
In the case of `CC(=O)Nc1ccc(-c2ccc3c(c2)nc2n3CC3CCC(C2)N3C2CCC2)cc1` (centres unmarked) [Compound 21, N-(4-(13-cyclobutyl-6,7,8,9,10,11-hexahydro-7,10-epiminobenzo[4,5]imidazo[1,2-a]azocin-3-yl)phenyl)acetamide], the IC50 is under 10 nM.
`c1cc2cc(-c3ccc4c(c3)nc3n4CC4CCC(C3)N4C3CCC3)ccc2[nH]1` (centres unmarked) [Compound 22, 13-cyclobutyl-3-(1H-indol-5-yl)-6,7,8,9,10,11-hexahydro-7,10-epiminobenzo[4,5]imidazo[1,2-a]azocine]: the IC50 is under 100 nM.
Regarding `N#Cc1ccc(-c2ccc3c(c2)nc2n3CC3CCC(C2)N3C2CCC2)cc1F` (centres unmarked) [Compound 24, 4-(13-cyclobutyl-6,7,8,9,10,11-hexahydro-7,10-epiminobenzo[4,5]imidazo[1,2-a]azocin-3-yl)-2-fluorobenzonitrile], the IC50 is under 10 nM.
Regarding `Clc1ccc2c(c1)nc1n2C2CCC1CN(C1CCC1)C2` (centres unmarked) [Compound 25, 8-chloro-3-cyclobutyl-2,3,4,5-tetrahydro-1H-1,5-ethanobenzo[4,5]imidazo[1,2-d][1,4]diazepine], the IC50 is under 1000 nM.
